Several values for one entry are separate records, joined by “and”; a condition that tells them apart may be missing. Identical values can stand only once.
Key:
Format in all cases: cell-based, human
[1] = system: SCC-112 mRNA in LnCap prostate cancer cells; assay: Northern hybridization of SCC-112 mRNA in androgen-treated LNCaP cells
Method: FIG. 5. Androgen induces the steady state levels of SCC-112 mRNA in prostate cancer cells. LNcap prostate cancer cells were grown in IMEM with 5% FBS. Logarithmically growing cells were switched to medium containing 5% charcoal stripped serum […] before the experiment. Indicated concentrations of synthetic androgen, R1881 (NEN) were added for 48 h. Total RNA was isolated and subjected to Northern hybridization using SCC-112 as probe.
FIG. 6. […] LnCAP cells were grown in IMEM medium containing 5% fetal bovine serum. Medium was replaced with 5% charcoal-stripped serum containing medium for 24 h, followed by addition of indicated concentration of synthetic androgen (R1881) for 48 h. Total RN A was isolated from various treatments and analyzed by northern blotting and hybridization using a radiolabeled SCC-112 cDNA fragment (1568 bp-6744 bp).
(§1) RNA Isolation and Northern Hybridization: MDA-MB 435 cells were synchronized at different cell cycle stages, and total RNA was isolated with Trizol reagent according to the manufacturer's instructions (Invitrogen Life technologies, Inc.). […] The autoradiographs were scanned and bands were quantified using IMAGEQUANT software (Molecular Dynamics, Sunnyvale, Calif.).

[2] = system: SCC-112 protein in MDA-MB 435 cells; assay: Western blot of SCC-112 protein in nocodazole-arrested (G2/M) MDA-MB 435 cells; settings: 100 ng/ml, 16 h, G2/M phase
Method: (§2) (C) Expression of SCC-112 mRNA and protein in G2/M phase. Logarithmically growing cells were arrested at G2/M phase using 100 ng/ml of nocodazole for 16 h (+). SCC-112 mRNA (upper) and protein levels (lower) were quantified as above. The SCC-112. mRNA level was ˜2 fold higher during G2/M phase (+) as compared to untreated cells (−). SCC-112 protein level was elevated during G2/M phase (˜5 fold) in nocodazole treated cells (+) as compared to untreated cells (−).
Western Blot Analysis: The cells were rinsed with ice-cold PBS and scrapped in lysis solution containing Tris (20 mM, pH 8.0), NaCl (150 mM), 1% NP-40 (w/v), 10% glycerol (w/v), 1 mM phenylmethylsulphonyl fluoride (PMSF), aprotinin (20 ug/ml) and leupeptin (20 ug/ml). The cells were lysed for 45 min with vigorous shaking at 4° C. and centrifuged at 12,000×g for 15 min at 4° C. Fifty micrograms of total protein were heat denatured by boiling for 5 min in SDS-PAGE loading buffer. After SDS-PAGE, the proteins were electrophoretically transferred on to PVDF membrane (Millipore). […]
(§3) Cell Synchronization and Flow Cytometry: Logarithmically growing MDA-MB 435 cells were treated with 4 ug/ml aphidicolin, a DNA polymerase-a inhibitor, for 24 h to synchronize cells at G1/S phase. […] The cell cycle distribution profiles were determined using a Fluorescence Activated Cell Sorter (Becton Dickinson).

[3] = system: SCC-112 mRNA in MDA-MB 435 cells; assay: Northern hybridization of SCC-112 mRNA in nocodazole-arrested (G2/M) MDA-MB 435 cells; settings: 100 ng/ml, 16 h, G2/M phase
Method: as §2, §1, §3

Compound	induction of steady state level of SCC-112 transcript (~8.0 kb) ([1]; LNCaP cells, charcoal-stripped serum, 1 nM to 100 nM, 48 h, vs untreated cells)	effect on SCC-112 mRNA expression (in words) ([1]; LNCap cells, FIG. 5)	SCC-112 protein level vs untreated cells [2] [fold]	SCC-112 mRNA level vs untreated cells [3] [fold]
C[C@]1(O)CC[C@H]2[C@@H]3CCC4=CC(=O)CCC4=C3C=C[C@@]21C [R1881]	4-7 fold and 4- to 7 fold	induces SCC-112 mRNA expression	–	–
COC(=O)Nc1nc2ccc(C(=O)c3cccs3)cc2[nH]1 [nocodazole]	–	–	~5	~2
